# Values of other authors in patent USRE39151E1, “Process for the preparation and purification of thiol-containing maytansinoids” (Immunogen, Inc., priority 2000, dated 2006).
# What was measured:
# [1] = system: L1210 cells; conditions: L1210 cells treated in vivo; untreated control mitotic index 3.2 to 5.8%
# [2] = system: P388 murine leukemic cell suspensions; conditions: in vitro, P388 cell suspension
# [3] = system: L1210 murine leukemic cell suspensions; conditions: in vitro, L1210 cell suspension
# [4] = system: LY5178 murine leukemic cell suspensions; conditions: in vitro, LY5178 cell suspension
# [5] = system: human nasopharyngeal carcinoma cells
# [6] = system: human acute lymphoblastic leukemia line C.E.M.
# [7] = system: P388 lymphocytic leukemia system; conditions: in vivo
# [8] = system: L1210 mouse leukemia system
# [9] = system: Lewis lung carcinoma system
# [10] = system: B-16 melanocarcinoma system
# [11] = system: tubulin; conditions: sea urchin eggs and clam eggs
# [12] = versus methotrexate, daunorubicin, and vincristine
# [13] = patients
structure (smiles),measurement,setting,value
COc1cc2cc(c1Cl)N(C)C(=O)C[C@H](OC(=O)[C@H](C)N(C)C(C)=O)[C@]1(C)O[C@H]1[C@H](C)[C@@H]1C[C@@](O)(NC(=O)O1)[C@H](OC)/C=C/C=C(\C)C2 [maytansine],cells accumulating in mitosis,[1],67%
same,inhibitory dose,[2],10^−3 to 10^−1 microgram/mL
same,inhibitory dose,[3],10^−3 to 10^−1 microgram/mL
same,inhibitory dose,[4],10^−3 to 10^−1 microgram/mL
same,inhibition of in vitro growth,[5],active inhibitor
same,inhibitory concentration,[6],≥ 10^−7 microgram/ml
same,dosage range over which tumor growth was inhibited,[7],50- to 100 fold
same,inhibitory activity in vivo,[8],significant inhibitory activity
same,inhibitory activity in vivo,[9],significant inhibitory activity
same,inhibitory activity in vivo,[10],significant inhibitory activity
same,effect on mitosis / microtubule formation,[11],inhibits mitosis by interfering with the formation of microtubules
same,fold more cytotoxic than conventional cancer chemotherapeutic agents,[12],100 to 1000 fold
same,adverse effects in clinical trials,[13],associated with peripheral neuropathy that might be cumulative
same,outcome of clinical trials,[13],not favorable due to a number of side effects
